Laboratory results taken from patent US6586596B2, “Acetylcholine enhancers” (priority 1998, dated 2003).
pIC50, pKi: −log10 of the molar value.

Columns and labels:
[1] = target: T1, peripheral 5-HT3 receptor (Rattus norvegicus, UniProt P35563); assay: 5-HT-evoked von Bezold-Jarish Effect (B.J.E.) in anesthetized rats; format: in vivo; conditions: Cm.A 3 to 10 mg/kg; for inhibition of 5-HT-evoked B.J.E. (reflex bradycardia): i.v. pretreatment, E2020 0.1~1 mg/kg, 5-HT 20 μg/kg i.v.; for blood pressure, heart rate and other signs: i.v., THA 10 mg/kg, E2020 higher than 1 mg/kg, data not shown
T1 construct: from tissue; host or cells: whole anesthetized rat (peripheral receptors)
T1 sequence (P35563 24-483): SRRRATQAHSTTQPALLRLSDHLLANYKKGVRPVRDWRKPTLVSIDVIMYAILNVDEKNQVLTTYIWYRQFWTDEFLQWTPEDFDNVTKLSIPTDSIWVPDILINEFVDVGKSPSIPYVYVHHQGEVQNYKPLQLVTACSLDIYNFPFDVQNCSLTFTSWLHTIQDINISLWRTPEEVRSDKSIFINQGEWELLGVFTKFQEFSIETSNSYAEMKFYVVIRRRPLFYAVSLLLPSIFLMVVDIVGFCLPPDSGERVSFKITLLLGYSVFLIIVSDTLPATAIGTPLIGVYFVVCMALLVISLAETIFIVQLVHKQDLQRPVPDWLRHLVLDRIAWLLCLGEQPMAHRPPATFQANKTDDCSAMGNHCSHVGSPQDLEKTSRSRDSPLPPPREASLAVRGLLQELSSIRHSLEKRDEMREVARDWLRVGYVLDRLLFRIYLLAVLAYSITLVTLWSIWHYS
Experimental: A bolus i.v. injection of serotonin (5-HT) (20 μg/kg) caused reflex bradycardia transiently (von Bezold—Jarish Effect: B.J.E.) via activation of peripheral 5-HT3 receptor in anesthetized rats.

BF-lesioned rats = assay: Water maze, BF lesion-induced deficit in spatial learning; conditions: oral; Cm.A 0.3, 1.0 and 3.0 mg/kg/day, THA 1.0 mg/kg/day, E2020 0.3 and 1.0 mg/kg/day
Experimental: For each training trial, the rat was placed in the water (22° C.) such that the animal faced the wall of a circular pool (150 cm in diameter, 45 cm in height), and started at one of five starting points (selected randornly). In each trial, the latency period to escape onto the hidden platform (fixed in the middle of one quadrant, 2 cm below the surface of water) was recorded. These procedures were repeated once or twice a day during the experimental period.

5-HT3 receptor = target: T2, 5-HT3 receptor (Mus musculus, UniProt P23979); assay: serotonin 5-HT3 binding assay (NovaScreen), NIE-115 cells; conditions: 20 mM HEPES pH 7.4, 150 mM NaCl, 25° C., 60 minutes
T2 construct: The receptor source was NIE-115 cells; host or cells: NIE-115 cells
T2 sequence (P23979 24-489): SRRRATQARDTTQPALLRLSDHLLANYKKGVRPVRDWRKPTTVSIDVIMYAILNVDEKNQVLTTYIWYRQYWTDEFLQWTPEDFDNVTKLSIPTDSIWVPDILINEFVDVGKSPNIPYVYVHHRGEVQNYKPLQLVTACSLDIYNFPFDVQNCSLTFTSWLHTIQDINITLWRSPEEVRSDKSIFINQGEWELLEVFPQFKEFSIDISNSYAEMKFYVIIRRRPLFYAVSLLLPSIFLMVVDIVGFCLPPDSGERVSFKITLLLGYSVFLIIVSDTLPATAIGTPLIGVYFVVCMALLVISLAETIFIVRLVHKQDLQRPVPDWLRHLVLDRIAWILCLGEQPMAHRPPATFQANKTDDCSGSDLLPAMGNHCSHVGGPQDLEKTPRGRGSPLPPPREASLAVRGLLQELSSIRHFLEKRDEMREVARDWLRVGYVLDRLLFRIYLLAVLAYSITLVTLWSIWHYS
Experimental: Binding affinity of a variety of compounds, including Cm.A, for the 5-HT3 receptor was investigated using a commercially available serotonin 5-HT3 binding assay (NovaScreen, Hanover, Md.). The receptor source was NIE-115 cells (See Lunnis, S. C. R. and Kilparick, G. J., 189: Evr. Jrnl. Pharmacol. 223 (1990); and Hoyer, D. and Heijt, H. C., 33 Mol. Pharmacol., 303 (1988)). The reference compound utilized was “MDL 72222,” a 5-HT3 receptor antagonist. Reactions were carried out in 20 mM HEPES (pH 7.4) containing 150 mM NaCl at 25° C. for 60 minutes. The reaction was terminated by rapid vacuum filtration onto glass fiber filters. Radioactivity trapped onto the filters was determined and compared with the control values.

Cynomologous monkeys [2] = assay: Hepatotoxic analysis, two-week oral study; format: in vivo; conditions: monkey, in vivo, po, 5 mg/kg/day
Description: The following parameters were examined: body weight, clinical signs, food consumption, blood biochemistry (GOT, GPT, ALP, LDH, γ-GTP, ChE, Bil, T.Pro, Alb, A/G ratio, T.Cho, NEFA, TG). After the administration period, the animals were sacrificed and autopsied. Organs and tissues were weighed, then examined histopathologically.

Cynomologous monkeys [3] = assay: Hepatotoxic analysis, four-week oral study; format: in vivo
Experimental: During the testing period, these animals were dosed with three different regimens: first, animals were dosed with 10 mg/kg/day for 7 days, followed by 32 days-washout period, second, animals were dosed with 5 mg/kg/day for 14 days, and thereafter the animals were dosed with 10 mg/kg/day for 7 days. The following parameters were examined: body weight, clinical signs, food consumption, blood biochemistry (GOT, GPT, ALP, LDH, γ-GTP, ChE, Bil, T.Pro, Alb, A/G ratio, T.Cho, NEFA, TG).

[4] = tested on: extracellular levels of ACh in striatum; assay: ACh release in striatum, microdialysis in freely moving rats; format: in vivo
Experimental: ACh content in perfusate obtained from striatum (Bregma, A: 0.2 mm, L: 3.0 mm, H: 4.0 mm) of brain were continuously detected by means of HPLC and ECD through the microdialysis system using freely moving rats. See Messamore, E., et al, 32 Neuropharmacol. […] After an equilibration period of more than 2 hours, five fractions were allowed to obtain basal ACh content. Compounds were injected i.p., and thereafter, a microdialytic analysis was conducted for 3 hours.

[5] = tested on: extracellular levels of ACh in hippocampus; assay: ACh release in hippocampus, microdialysis in freely moving rats; format: in vivo
Experimental: ACh content in perfusate obtained from hippocampus (Bregma, A: −5.8 mm, L: 5.0 mm, H: 4.0 mm) of brain were continuously detected by means of HPLC and ECD through the microdialysis system using freely moving rats (See Messamore and Kawashima, supra). After an equilibration period, five fractions were allowed to obtain basal ACh content. Test substances were injected i.p., and thereafter, microdialytic analysis was conducted for 3 hr.

[6] = tested on: scopolamine-induced spatial learning deficit; assay: Water maze, scopolamine-induced deficit in spatial learning; format: in vivo, rats; conditions: p.o. 60 minutes before each trial; Cm.A 1.0 mg/kg/day; scopolamine 0.5 mg/kg i.p.
Experimental: A total of 6 trials (2 trials on 1st day, and 1 trial after 2nd day) were conducted to observe the effects of the test compounds. Scopolamine (0.5 mg/kg, i.p.) and the test compounds (p.o.) were administered 30 and 60 minutes before each trial, respectively.

Compound	inhibition of 5-HT-evoked B.J.E. (reflex bradycardia) [1]	blood pressure, heart rate and other signs [1]	deficit of spatial learning (escape latency) (BF-lesioned rats)	pIC50 (5-HT3 receptor; read-out: IC50)	pKi (5-HT3 receptor; read-out: Ki)	Clinical signs softstool (Cynomologous monkeys [2])	Clinical signs vomiting (Cynomologous monkeys [2])	Food consumption (Cynomologous monkeys [2])	Blood biochemistry (Cynomologous monkeys [3]; F, oral, four weeks)	Clinical signs softstool (Cynomologous monkeys [3]; monkey, in vivo, po)	clinical signs (Cynomologous monkeys [3]; monkey, in vivo, po)	food consumption and body weight (Cynomologous monkeys [3]; monkey, in vivo, po)	blood biochemical tests (Cynomologous monkeys [3]; oral, four weeks)	centrally acting cholinergic symptoms (tremor, chewing and yawning) ([4]; rat, in vivo, ip)	increase of ACh content compared with Cm.A ([4]; striatum, young rats, i.p.)	increase of ACh content compared with Cm.A ([5]; hippocampus, i.p.)	centrally acting cholinergic symptoms (tremor, chewing and yawning) ([5]; rat, in vivo, ip)	deficit in spatial learning (escape latency) [6]
COc1cc2c(cc1OC)C(=O)C(CC1CCN(Cc3ccccc3)CC1)C2 (stereo not drawn) [E2020, donepezil]	no inhibitory effect on B.J.E.	caused hypertension, salivation and tremor	also improved this type of deficit															
CN1[C@@H]2CC[C@H]1C[C@@H](OC(=O)c1cc(Cl)cc(Cl)c1)C2 [MDL 72222]				8.05	8.38													
Nc1c2c(nc3ccccc13)CCCC2 [THA, 1,2,3,4-tetrahydro-9-acridinamine, reference compound]	slight tendency to decrease the reflex	caused severe hypertension, salivation and tremor	also improved this type of deficit			−	+	−	↓: CHE	+++	severe vomiting and soft stools or diarrhea	decrease in body weight and food consumption	increase in TG and NEFA, decrease in ChE and T.Cho	greater severity as compared with Cm.A	increased the ACh content more potently and long-lastingly than Cm.A	somewhat weak	more apparent as compared with Cm.A	no significant effect
